From publication PMC12454493, “Insight on novel sulfamoylphenyl pyrazole derivatives as anticancer carbonic anhydrase inhibitors” (Molecular Diversity, 2024)

How the values were obtained:
[1] = system: COLO 205; assay: NCI-60 one-dose SRB screen (Colon Cancer); assay type: cell-based; details: Homo sapiens, single dose 10 µM, 48 h, read-out: Growth inhibition percent (GI %)
[2] = system: HT29; assay: NCI-60 one-dose SRB screen (Colon Cancer); assay type: cell-based; details: Homo sapiens, HT-29, single dose 10 µM, 48 h, read-out: Growth inhibition percent (GI %)
[3] = system: HCC-2998; assay: NCI-60 one-dose SRB screen (Colon Cancer); assay type: cell-based; details: Homo sapiens, single dose 10 µM, 48 h, read-out: Growth inhibition percent (GI %)
[4] = system: KM12; assay: NCI-60 one-dose SRB screen (Colon Cancer); assay type: cell-based; details: Homo sapiens, single dose 10 µM, 48 h, read-out: Growth inhibition percent (GI %)
[5] = system: SW-620; assay: NCI-60 one-dose SRB screen (Colon Cancer); assay type: cell-based; details: Homo sapiens, single dose 10 µM, 48 h, read-out: Growth inhibition percent (GI %)
[6] = system: HCT-15; assay: NCI-60 one-dose SRB screen (Colon Cancer); assay type: cell-based; details: Homo sapiens, single dose 10 µM, 48 h, read-out: Growth inhibition percent (GI %)
[7] = system: HCT-116; assay: NCI-60 one-dose SRB screen (Colon Cancer); assay type: cell-based; details: Homo sapiens, single dose 10 µM, 48 h, read-out: Growth inhibition percent (GI %)
[8] = system: T-47D; assay: NCI-60 one-dose SRB screen (Breast Cancer); assay type: cell-based; details: Homo sapiens, T47D, single dose 10 µM, 48 h, read-out: Growth inhibition percent (GI %)
[9] = system: MDA-MB-231/ATCC; assay: NCI-60 one-dose SRB screen (Breast Cancer); assay type: cell-based; details: Homo sapiens, single dose 10 µM, 48 h, read-out: Growth inhibition percent (GI %)
[10] = system: MCF-7; assay: NCI-60 one-dose SRB screen (Breast Cancer); assay type: cell-based; details: Homo sapiens, MCF7, single dose 10 µM, 48 h, read-out: Growth inhibition percent (GI %)
[11] = system: HS 578T; assay: NCI-60 one-dose SRB screen (Breast Cancer); assay type: cell-based; details: Homo sapiens, single dose 10 µM, 48 h, read-out: Growth inhibition percent (GI %)
[12] = system: HOP-92; assay: NCI-60 one-dose SRB screen (Non-Small Cell Lung Cancer); assay type: cell-based; details: Homo sapiens, single dose 10 µM, 48 h, read-out: Growth inhibition percent (GI %)
[13] = system: A549/ATCC; assay: as above; assay type: cell-based; details: Homo sapiens, single dose 10 µM, 48 h, read-out: Growth inhibition percent (GI %)
[14] = system: NCI-H522; assay: as above; assay type: cell-based; details: Homo sapiens, single dose 10 µM, 48 h, read-out: Growth inhibition percent (GI %)
[15] = system: NCI-H322M; assay: as above; assay type: cell-based; details: Homo sapiens, single dose 10 µM, 48 h, read-out: Growth inhibition percent (GI %)
[16] = system: NCI-H460; assay: as above; assay type: cell-based; details: Homo sapiens, single dose 10 µM, 48 h, read-out: Growth inhibition percent (GI %)
[17] = system: NCI-H23; assay: as above; assay type: cell-based; details: Homo sapiens, single dose 10 µM, 48 h, read-out: Growth inhibition percent (GI %)
[18] = system: EKVX; assay: as above; assay type: cell-based; details: Homo sapiens, single dose 10 µM, 48 h, read-out: Growth inhibition percent (GI %)
[19] = system: HOP-62; assay: as above; assay type: cell-based; details: Homo sapiens, single dose 10 µM, 48 h, read-out: Growth inhibition percent (GI %)
[20] = system: NCI-H226; assay: as above; assay type: cell-based; details: Homo sapiens, single dose 10 µM, 48 h, read-out: Growth inhibition percent (GI %)
[21] = system: CCRF-CEM; assay: NCI-60 one-dose SRB screen (Leukemia); assay type: cell-based; details: Homo sapiens, single dose 10 µM, 48 h, read-out: Growth inhibition percent (GI %)
[22] = system: HL-60(TB); assay: NCI-60 one-dose SRB screen (Leukemia); assay type: cell-based; details: Homo sapiens, single dose 10 µM, 48 h, read-out: Growth inhibition percent (GI %)
[23] = system: MOLT-4; assay: NCI-60 one-dose SRB screen (Leukemia); assay type: cell-based; details: Homo sapiens, single dose 10 µM, 48 h, read-out: Growth inhibition percent (GI %)
[24] = system: SR; assay: NCI-60 one-dose SRB screen (Leukemia); assay type: cell-based; details: Homo sapiens, single dose 10 µM, 48 h, read-out: Growth inhibition percent (GI %)
[25] = system: K-562; assay: NCI-60 one-dose SRB screen (Leukemia); assay type: cell-based; details: Homo sapiens, K562, single dose 10 µM, 48 h, read-out: Growth inhibition percent (GI %)
[26] = system: RPMI-8226; assay: NCI-60 one-dose SRB screen (Leukemia); assay type: cell-based; details: Homo sapiens, single dose 10 µM, 48 h, read-out: Growth inhibition percent (GI %)
[27] = system: DU-145; assay: NCI-60 one-dose SRB screen (Prostate Cancer); assay type: cell-based; details: Homo sapiens, single dose 10 µM, 48 h, read-out: Growth inhibition percent (GI %)
[28] = system: PC-3; assay: NCI-60 one-dose SRB screen (Prostate Cancer); assay type: cell-based; details: Homo sapiens, single dose 10 µM, 48 h, read-out: Growth inhibition percent (GI %)
[29] = system: SK-MEL-5; assay: NCI-60 one-dose SRB screen (Melanoma); assay type: cell-based; details: Homo sapiens, single dose 10 µM, 48 h, read-out: Growth inhibition percent (GI %)
[30] = system: MALME-3M; assay: NCI-60 one-dose SRB screen (Melanoma); assay type: cell-based; details: Homo sapiens, single dose 10 µM, 48 h, read-out: Growth inhibition percent (GI %)
[31] = system: M14; assay: NCI-60 one-dose SRB screen (Melanoma); assay type: cell-based; details: Homo sapiens, single dose 10 µM, 48 h, read-out: Growth inhibition percent (GI %)
[32] = system: MDA-MB-435; assay: NCI-60 one-dose SRB screen (Melanoma); assay type: cell-based; details: Homo sapiens, single dose 10 µM, 48 h, read-out: Growth inhibition percent (GI %)
[33] = system: SK-MEL-28; assay: NCI-60 one-dose SRB screen (Melanoma); assay type: cell-based; details: Homo sapiens, single dose 10 µM, 48 h, read-out: Growth inhibition percent (GI %)
[34] = system: SK-MEL-2; assay: NCI-60 one-dose SRB screen (Melanoma); assay type: cell-based; details: Homo sapiens, single dose 10 µM, 48 h, read-out: Growth inhibition percent (GI %)
[35] = system: LOX IMVI; assay: NCI-60 one-dose SRB screen (Melanoma); assay type: cell-based; details: Homo sapiens, single dose 10 µM, 48 h, read-out: Growth inhibition percent (GI %)
[36] = system: UACC-257; assay: NCI-60 one-dose SRB screen (Melanoma); assay type: cell-based; details: Homo sapiens, single dose 10 µM, 48 h, read-out: Growth inhibition percent (GI %)
[37] = system: UACC-62; assay: NCI-60 one-dose SRB screen (Melanoma); assay type: cell-based; details: Homo sapiens, single dose 10 µM, 48 h, read-out: Growth inhibition percent (GI %)
[38] = system: OVCAR-5; assay: NCI-60 one-dose SRB screen (Ovarian cancer); assay type: cell-based; details: Homo sapiens, single dose 10 µM, 48 h, read-out: Growth inhibition percent (GI %)
[39] = system: IGROV1; assay: NCI-60 one-dose SRB screen (Ovarian cancer); assay type: cell-based; details: Homo sapiens, IGROV-1, single dose 10 µM, 48 h, read-out: Growth inhibition percent (GI %)
[40] = system: OVCAR-3; assay: NCI-60 one-dose SRB screen (Ovarian cancer); assay type: cell-based; details: Homo sapiens, single dose 10 µM, 48 h, read-out: Growth inhibition percent (GI %)
[41] = system: NCI/ADR-RES; assay: NCI-60 one-dose SRB screen (Ovarian cancer); assay type: cell-based; details: Homo sapiens, single dose 10 µM, 48 h, read-out: Growth inhibition percent (GI %)
[42] = system: SK-OV-3; assay: NCI-60 one-dose SRB screen (Ovarian cancer); assay type: cell-based; details: Homo sapiens, single dose 10 µM, 48 h, read-out: Growth inhibition percent (GI %)
[43] = system: OVCAR-4; assay: NCI-60 one-dose SRB screen (Ovarian cancer); assay type: cell-based; details: Homo sapiens, single dose 10 µM, 48 h, read-out: Growth inhibition percent (GI %)
[44] = system: OVCAR-8; assay: NCI-60 one-dose SRB screen (Ovarian cancer); assay type: cell-based; details: Homo sapiens, single dose 10 µM, 48 h, read-out: Growth inhibition percent (GI %)

Q: For `CS(=O)(=O)c1ccc(-c2nn(-c3ccc(S(N)(=O)=O)cc3)cc2C(=O)NNC(N)=S)cc1` [Compound 9e, 2-[3-(4-(Methylsulfonyl)phenyl)-1-(4-sulfamoylphenyl)-1H-pyrazole-4-carbonyl] hydrazine-1-carbothioamide], which inhibition at 10 µM [1] is on record?
A: < 5%

Q: And the inhibition at 10 µM [2]?
A: < 5%

Q: What about the inhibition at 10 µM [3] of the same compound?
A: < 5%

Q: What about the inhibition at 10 µM [4] of the same compound?
A: < 5%

Q: What about the inhibition at 10 µM [5] of the same compound?
A: < 5%

Q: And the inhibition at 10 µM [6]?
A: < 5%

Q: And the inhibition at 10 µM [7]?
A: < 5%

Q: What about the melting point of the same compound?
A: 261 to 262 °C

Q: What about the inhibition at 10 µM [8] of the same compound?
A: < 5%

Q: What about the inhibition at 10 µM [9] of the same compound?
A: < 5%

Q: What about the inhibition at 10 µM [10] of the same compound?
A: < 5%

Q: What about the inhibition at 10 µM [11] of the same compound?
A: 7.37%

Q: What about the inhibition at 10 µM [12] of the same compound?
A: < 5%

Q: What about the inhibition at 10 µM [13] of the same compound?
A: < 5%

Q: What about the inhibition at 10 µM [14] of the same compound?
A: 12.3%

Q: And the inhibition at 10 µM [15]?
A: < 5%

Q: And the inhibition at 10 µM [16]?
A: < 5%

Q: And the inhibition at 10 µM [17]?
A: < 5%

Q: What about the inhibition at 10 µM [18] of the same compound?
A: < 5%

Q: And the inhibition at 10 µM [19]?
A: < 5%

Q: What about the inhibition at 10 µM [20] of the same compound?
A: 6.39%

Q: And the inhibition at 10 µM [21]?
A: < 5%

Q: And the inhibition at 10 µM [22]?
A: < 5%

Q: What about the inhibition at 10 µM [23] of the same compound?
A: < 5%

Q: And the inhibition at 10 µM [24]?
A: < 5%

Q: And the inhibition at 10 µM [25]?
A: < 5%

Q: What about the inhibition at 10 µM [26] of the same compound?
A: < 5%

Q: What about the inhibition at 10 µM [27] of the same compound?
A: < 5%

Q: What about the inhibition at 10 µM [28] of the same compound?
A: < 5%

Q: What about the inhibition at 10 µM [29] of the same compound?
A: < 5%

Q: What about the inhibition at 10 µM [30] of the same compound?
A: < 5%

Q: What about the inhibition at 10 µM [31] of the same compound?
A: < 5%

Q: And the inhibition at 10 µM [32]?
A: < 5%

Q: What about the inhibition at 10 µM [33] of the same compound?
A: < 5%

Q: What about the inhibition at 10 µM [34] of the same compound?
A: < 5%

Q: What about the inhibition at 10 µM [35] of the same compound?
A: < 5%

Q: What about the inhibition at 10 µM [36] of the same compound?
A: 7%

Q: And the inhibition at 10 µM [37]?
A: 7.82%

Q: What about the inhibition at 10 µM [38] of the same compound?
A: < 5%

Q: And the inhibition at 10 µM [39]?
A: < 5%

Q: And the inhibition at 10 µM [40]?
A: < 5%

Q: What about the inhibition at 10 µM [41] of the same compound?
A: < 5%

Q: What about the inhibition at 10 µM [42] of the same compound?
A: < 5%

Q: And the inhibition at 10 µM [43]?
A: < 5%

Q: What about the inhibition at 10 µM [44] of the same compound?
A: < 5%
